# In publication PMC7395062, “Multiparametric assessment of mitochondrial respiratory inhibition in HepG2 and RPTEC/TERT1 cells using a panel of mitochondrial targeting agrochemicals” (Archives of Toxicology, 2020):
# Read-outs that look alike come from different tables or passages of the source.
# Tests used:
# RPTEC/TERT1 cells = assay: Resazurin reduction viability assay, RPTEC/TERT1; type: cell-based, human; conditions: for Statistical significance, Viability Galactose settings Resazurin / Statistical significance, Viability Glucose settings Resazurin: RPTEC/TERT1
# Experimental: These cells were obtained under licence from Evercyte GmBH, Vienna Austria. […] For experiments, cells were plated in a required format plate, allowed to become contact-inhibited and fed 24 h prior to treatment exposure. For experiments in galactose condition, cells were fed 24 h prior to experiment with culture medium (custom made DMEM/F12, PromoCell) in which 5 mM glucose was replaced with 5 mM galactose (Merck, G5388).
# (§1) The conversion of resazurin to fluorescent resorufin was measured in a plate reader at excitation/emission 540/590 nm.
# (§2) All results are average of 2–3 independent experiments.
# HepG2 cells = assay: Resazurin reduction viability assay, 2D HepG2; type: cell-based, human; conditions: for Effect on resazurin reduction / viability: up to 10 µM, 24 h exposure; for Effect on resazurin reduction / viability / Statistical significance, Viability Glucose settings Resazurin: glucose
# Experimental: (§3) The HepG2 cell line, a human hepatocellular carcinoma, was obtained from ATCC (American Type Culture Collection, Wesel, Germany). […] Cells were maintained at 37 °C in a 5% CO2 humidified atmosphere, fed every 2 to 3 days and passaged at approximately 80% confluence. […] For galactose experiments, the medium was refreshed 24 h before exposure with galactose-containing medium. […] Culture medium was refreshed every 3–4 days and the culture was maintained for 21 days prior to dosing.
# as §1, §2
# HepG2 3D spheroids = assay: Cell death assay (PI staining) in 3D cultured HepG2 spheroids; type: cell-based, human; conditions: for Effect of repeated exposure (5 × 24 h vs 1 × 24 h) on toxic sensitivity: 3D HepG2 spheroids; for EC50: Homo sapiens, HepG2, 24 h
# Experimental: as §3
# At day 21, the culture medium was replaced by fresh medium containing the compounds in the desired concentration. […] For the repeat exposure scenario, Hoechst was added to the 4th exposure and PI to the 5th exposure. […] The confocal imaging was performed using a Nikon TiE2000 with perfect focus system and XY-stage (Nikon, Amsterdam, The Netherlands). Quantification of the Hoechst and PI signal localization was performed using Nis Elements Analysis software. First, a max projection was created of all z-stacks. The overlapping areas between Hoechst and PI in the projection picture were assessed based on a manually curated intensity threshold. Finally, the fraction of spheroids positive for PI staining was determined.
# as §2
# [1] = system: CII/CIII (succinate dehydrogenase / cytochrome bc1 complex); type: cell-based, human; conditions: permeabilised HepG2; sequential substrates/inhibitors
# Experimental: The test compound is injected and OCR is measured. […] OCR is measured for the second time. […] A third and final OCR measurement is conducted.
# Compounds were injected sequentially and OCR was measured twice. […] ETC inhibition is determined in decreased OCR.
# as §2
# [2] = molecular target: NADH dehydrogenase (Complex I, CI) (Homo sapiens, UniProt O75251+O75306+P03886)
# Experimental: The mitochondrial complex assay uses real-time OCR measurement with sequential addition of specific complex substrates and/or inhibitors to identify the complex within the ETC that is inhibited. […] In the first step, cultured cells are permeabilised and provided with CI substrates. The test compound is injected and OCR is measured. […] OCR is measured for the second time. In the third step, Antimycin A together with ascorbate and tetramethyl phenylenediamine (TMPD) is added to simultaneously block CIII and supply CIV. A third and final OCR measurement is conducted.
# The following day, cells were washed once in mitochondrial assay solution (MAS), containing 220 mM mannitol (Sigma, M9647), 70 mM sucrose (Sigma, S7903), 10 mM potassium phosphate (Sigma, P5655), 5 mM magnesium chloride (Sigma, M8266), 3 mM HEPES (Sigma, H0887) and 1 mM EGTA (Sigma, E4378) with 0.2% fatty acid-free BSA (Sigma, A8806). […] Each measurement consisted of a thirty second mix and two-minute read cycle. Compounds were injected sequentially and OCR was measured twice. […] Complex inhibition was determined using the second OCR measurement after compound/vehicle injection, normalised to the baseline OCR measurements prior to compound addition. ETC inhibition is determined in decreased OCR. CI inhibition is confirmed if the inhibited OCR by injection A can be rescued after injection B. CII inhibition is determined if there is no inhibition after A, but inhibition after B. CIII inhibition is determined if there is inhibition after A and B, with recovery after C. OCR inhibition after injection C indicates effects downstream of CIII.
# All results are average of 2–3 independent experiments. Each independent experiment is referred to as biological replicate and includes at least two technical replicates. […] Variation in all performed assays was calculated and represented as standard deviation (SD). Curves were fit using the non-liner regression four-parameter Hill model.
# [3] = read-out: EC50 cell death 3D HepG2, 1 × 24 h exposure
# [4] = read-out: EC50 cell death 3D HepG2, 5 × 24 h exposure
# NADH dehydrogenase (Complex I, CI), sequence (O75251 39-213): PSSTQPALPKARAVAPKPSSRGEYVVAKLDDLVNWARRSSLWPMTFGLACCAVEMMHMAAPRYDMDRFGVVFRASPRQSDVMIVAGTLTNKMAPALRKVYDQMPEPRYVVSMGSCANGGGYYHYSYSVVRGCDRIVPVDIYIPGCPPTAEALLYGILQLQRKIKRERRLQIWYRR
# NADH dehydrogenase (Complex I, CI), sequence (P03886 whole entry): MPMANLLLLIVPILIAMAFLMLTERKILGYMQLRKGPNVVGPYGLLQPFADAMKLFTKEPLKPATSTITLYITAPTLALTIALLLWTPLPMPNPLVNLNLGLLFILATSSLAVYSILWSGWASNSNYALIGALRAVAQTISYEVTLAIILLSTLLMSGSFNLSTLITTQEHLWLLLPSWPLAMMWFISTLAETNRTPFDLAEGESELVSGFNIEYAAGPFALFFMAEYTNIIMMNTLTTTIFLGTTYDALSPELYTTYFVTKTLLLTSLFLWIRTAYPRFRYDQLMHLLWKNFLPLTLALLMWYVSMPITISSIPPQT
# NADH dehydrogenase (Complex I, CI), sequence (O75306 34-463): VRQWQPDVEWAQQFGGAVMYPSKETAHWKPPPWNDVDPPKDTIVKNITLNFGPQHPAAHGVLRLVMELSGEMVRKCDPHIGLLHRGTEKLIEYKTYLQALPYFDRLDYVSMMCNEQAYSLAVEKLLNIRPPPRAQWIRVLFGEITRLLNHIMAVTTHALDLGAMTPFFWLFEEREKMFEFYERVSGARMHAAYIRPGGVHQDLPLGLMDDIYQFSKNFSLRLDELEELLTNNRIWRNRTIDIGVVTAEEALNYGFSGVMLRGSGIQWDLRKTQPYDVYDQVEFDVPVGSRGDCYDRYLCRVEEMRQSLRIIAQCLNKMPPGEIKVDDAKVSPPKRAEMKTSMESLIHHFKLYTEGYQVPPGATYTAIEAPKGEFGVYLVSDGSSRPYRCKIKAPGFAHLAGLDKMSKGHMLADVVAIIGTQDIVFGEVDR
SMILES,"Statistical significance, Viability Galactose settings Resazurin (RPTEC/TERT1 cells; g = 7 µM)","Statistical significance, Viability Galactose settings Resazurin (RPTEC/TERT1 cells; h = 10 µM)","Statistical significance, Viability Glucose settings Resazurin (RPTEC/TERT1 cells; glucose, g = 7 µM)","Statistical significance, Viability Glucose settings Resazurin (RPTEC/TERT1 cells; glucose, h = 10 µM)","Statistical significance, Viability Galactose settings Resazurin (HepG2 cells; HepG2, galactose, e = 0.08 µM)","Statistical significance, Viability Galactose settings Resazurin (HepG2 cells; HepG2, galactose, f = 0.4 µM)","Statistical significance, Viability Galactose settings Resazurin (HepG2 cells; HepG2, galactose, g = 7 µM)","Statistical significance, Viability Galactose settings Resazurin (HepG2 cells; HepG2, galactose, h = 10 µM)",ETC-complex specificity pattern (CII/CIII) [1],also measured
CCCCCC[C@H]1C(=O)O[C@H](C)[C@H](NC(=O)c2cccc(NC=O)c2O)C(=O)O[C@@H](C)[C@@H]1OC(=O)CC(C)C [Antimycin A],"* (*p < 0.05 (Tables 3, 4))","* (*p < 0.05 (Tables 3, 4))","* (*p < 0.05 (Tables 3, 4))","* (*p < 0.05 (Tables 3, 4))","* (*p < 0.05 (Tables 3, 4))","* (*p < 0.05 (Tables 3, 4))","* (*p < 0.05 (Tables 3, 4))","* (*p < 0.05 (Tables 3, 4))",conformed to this pattern,"Statistical significance, Viability Galactose settings Resazurin (RPTEC/TERT1 cells; e = 0.08 µM): * (*p < 0.05 (Tables 3, 4)); Statistical significance, Viability Galactose settings Resazurin (RPTEC/TERT1 cells; f = 0.4 µM): * (*p < 0.05 (Tables 3, 4)); Statistical significance, Viability Galactose settings Resazurin (HepG2 cells; HepG2, galactose, d = 0.016 µM): * (*p < 0.05 (Tables 3, 4)); Effect of repeated exposure (5 × 24 h vs 1 × 24 h) on toxic sensitivity (HepG2 3D spheroids): increased the toxic sensitivity; EC50 (HepG2 3D spheroids; [3]): > 10000 nM; EC50 (HepG2 3D spheroids; [4]): 74 nM"
CO/C=C(/C(=O)OC)c1ccccc1Oc1cc(Oc2ccccc2C#N)ncn1 [Azoxystrobin],"* (*p < 0.05 (Tables 3, 4))","* (*p < 0.05 (Tables 3, 4))",,"* (*p < 0.05 (Tables 3, 4))",,,"* (*p < 0.05 (Tables 3, 4))","* (*p < 0.05 (Tables 3, 4))",only partially rescued with ascorbate/TMPD,
COc1cc(CNC(=O)CCCC/C=C/C(C)C)ccc1O [Capsaicin],,,,"* (*p < 0.05 (Tables 3, 4))",,,,,,"Effect on resazurin reduction (RPTEC/TERT1 cells; up to 10 µM, 24 h exposure, glucose): did not affect resazurin reduction; Effect on resazurin reduction / viability (HepG2 cells): did not affect resazurin reduction; LOEL, CI inhibition in mitochondrial complex assay ([2]; permeabilised HepG2): 50 µM; ETC-complex specificity pattern (CI) ([2]; permeabilised HepG2, OCR inhibition after injection, recovery with succinate): expected CI-specificity pattern"
COc1cc2c(cc1OC)[C@@H]1C(=O)c3ccc4c(c3O[C@@H]1CO2)C=CC(C)(C)O4 [Deguelin],"* (*p < 0.05 (Tables 3, 4))","* (*p < 0.05 (Tables 3, 4))","* (*p < 0.05 (Tables 3, 4))","* (*p < 0.05 (Tables 3, 4))",,"* (*p < 0.05 (Tables 3, 4))","* (*p < 0.05 (Tables 3, 4))","* (*p < 0.05 (Tables 3, 4))",,"Statistical significance, Viability Galactose settings Resazurin (RPTEC/TERT1 cells; f = 0.4 µM): * (*p < 0.05 (Tables 3, 4)); OCR basal - Permeabilised cells Measurement 1 statistical significance [2]: * (*p < 0.05)"
CSC1=N[C@@](C)(c2ccccc2)C(=O)N1Nc1ccccc1 [Fenamidone],,,,,,,,"* (*p < 0.05 (Tables 3, 4))",only partially rescued with ascorbate/TMPD,
CC(C)(C)c1ccc(CCOc2ncnc3ccccc23)cc1 [Fenazaquin],,,"* (*p < 0.05 (Tables 3, 4))","* (*p < 0.05 (Tables 3, 4))","* (*p < 0.05 (Tables 3, 4))","* (*p < 0.05 (Tables 3, 4))","* (*p < 0.05 (Tables 3, 4))","* (*p < 0.05 (Tables 3, 4))",,
CO/N=C(/C(=O)OC)c1ccccc1COc1ccccc1C [Kresoxim-methyl],,,,,,,,,,"Statistical significance, Viability Galactose settings Resazurin (HepG2 cells): * (key: *p < 0.05 (Tables 3, 4))"
CO/C=C(/C(=O)OC)c1ccccc1COc1cccc(C(F)(F)F)n1 [Picoxystrobin],"* (*p < 0.05 (Tables 3, 4))","* (*p < 0.05 (Tables 3, 4))",,"* (*p < 0.05 (Tables 3, 4))",,"* (*p < 0.05 (Tables 3, 4))","* (*p < 0.05 (Tables 3, 4))","* (*p < 0.05 (Tables 3, 4))",conformed to this pattern,Effect of repeated exposure (5 × 24 h vs 1 × 24 h) on toxic sensitivity (HepG2 3D spheroids): increased the toxic sensitivity
COC(=O)N(OC)c1ccccc1COc1ccn(-c2ccc(Cl)cc2)n1 [Pyraclostrobin],"* (*p < 0.05 (Tables 3, 4))","* (*p < 0.05 (Tables 3, 4))","* (*p < 0.05 (Tables 3, 4))","* (*p < 0.05 (Tables 3, 4))",,"* (*p < 0.05 (Tables 3, 4))","* (*p < 0.05 (Tables 3, 4))","* (*p < 0.05 (Tables 3, 4))",conformed to this pattern,"Statistical significance, Viability Galactose settings Resazurin (RPTEC/TERT1 cells; f = 0.4 µM): * (*p < 0.05 (Tables 3, 4)); Statistical significance, Viability Glucose settings Resazurin (HepG2 cells; HepG2, h = 10 µM): * (*p < 0.05 (Tables 3, 4)); Effect of repeated exposure (5 × 24 h vs 1 × 24 h) on toxic sensitivity (HepG2 3D spheroids): increased the toxic sensitivity"
CC(C)(C)c1ccc(CSc2cnn(C(C)(C)C)c(=O)c2Cl)cc1 [Pyridaben],,,"* (*p < 0.05 (Tables 3, 4))","* (*p < 0.05 (Tables 3, 4))","* (*p < 0.05 (Tables 3, 4))","* (*p < 0.05 (Tables 3, 4))","* (*p < 0.05 (Tables 3, 4))","* (*p < 0.05 (Tables 3, 4))",,"Statistical significance, Viability Glucose settings Resazurin (RPTEC/TERT1 cells; glucose, f = 0.4 µM): * (*p < 0.05 (Tables 3, 4)); Statistical significance, Viability Galactose settings Resazurin (HepG2 cells; HepG2, galactose, d = 0.016 µM): * (*p < 0.05 (Tables 3, 4))"
CCOCCc1ccc(OCCN=c2[nH]cnc(CC)c2Cl)c(C)c1C [Pyrimidifen],,,"* (*p < 0.05 (Tables 3, 4))","* (*p < 0.05 (Tables 3, 4))","* (*p < 0.05 (Tables 3, 4))","* (*p < 0.05 (Tables 3, 4))","* (*p < 0.05 (Tables 3, 4))","* (*p < 0.05 (Tables 3, 4))",,"Statistical significance, Viability Galactose settings Resazurin (HepG2 cells; HepG2, galactose, d = 0.016 µM): * (*p < 0.05 (Tables 3, 4))"
C=C(C)[C@H]1Cc2c(ccc3c2O[C@@H]2COc4cc(OC)c(OC)cc4[C@@H]2C3=O)O1 [Rotenone],,,,,,,,,,Effect on resazurin reduction / viability (HepG2 cells): mildly affected the viability; EC50 (HepG2 3D spheroids; [3]): 127 nM; EC50 (HepG2 3D spheroids; [4]): 28 nM
CCc1nn(C)c(C(=O)NCc2ccc(C(C)(C)C)cc2)c1Cl [Tebufenpyrad],,,"* (*p < 0.05 (Tables 3, 4))","* (*p < 0.05 (Tables 3, 4))","* (*p < 0.05 (Tables 3, 4))","* (*p < 0.05 (Tables 3, 4))","* (*p < 0.05 (Tables 3, 4))","* (*p < 0.05 (Tables 3, 4))",,"Statistical significance, Viability Glucose settings Resazurin (HepG2 cells; HepG2, h = 10 µM): * (*p < 0.05 (Tables 3, 4)); Effect of repeated exposure (5 × 24 h vs 1 × 24 h) on toxic sensitivity (HepG2 3D spheroids): increased the toxic sensitivity"
CON=C(C(=O)OC)c1ccccc1CON=C(C)c1cccc(C(F)(F)F)c1 [Trifloxystrobin],,,,"* (*p < 0.05 (Tables 3, 4))",,"* (*p < 0.05 (Tables 3, 4))","* (*p < 0.05 (Tables 3, 4))","* (*p < 0.05 (Tables 3, 4))",conformed to this pattern,
